Laboratory results reported in US6552196B2, “Quinolone carboxylic acid derivatives” (Dong Wha Pharmaceutical Industrial Co., Ltd., priority 1997, dated 2003).
≈ marks a conversion by molar mass, not a printed value.

Key:
Type in all cases: cell-based
[1] = tested on: Staphylococcus aureus 208E; test: In vitro antibacterial activity against resistant strains (MIC); conditions: resistant strain Staphylococcus aureus 208E; 2-fold agar dilution; methicillin resistant strains 48 hours at 30° C.; read-out: minimum inhibitory concentration (MIC)
Procedure: (§1) 10^7 cfu/ml of bacteria were inoculated and cultured for 18 hours at 37° C. and then the antibacterial activities were measured. For the methicillin resistant strains the activities were measured after 48 hours of cultivation at 30° C. Hoechst Standard strains were used for the testings.

[2] = tested on: Staphylococcus aureus 693E; test: as above; conditions: resistant strain Staphylococcus aureus 693E; 2-fold agar dilution; methicillin resistant strains 48 hours at 30° C.; read-out: minimum inhibitory concentration (MIC)
Procedure: as §1

[3] = tested on: Staphylococcus aureus 701E; test: as above; conditions: resistant strain Staphylococcus aureus 701E; 2-fold agar dilution; methicillin resistant strains 48 hours at 30° C.; read-out: minimum inhibitory concentration (MIC)
Procedure: as §1

[4] = tested on: Staphylococcus aureus 692E; test: as above; conditions: resistant strain Staphylococcus aureus 692E; 2-fold agar dilution; methicillin resistant strains 48 hours at 30° C.; read-out: minimum inhibitory concentration (MIC)
Procedure: as §1

[5] = tested on: Staphylococcus epidermidis 178; test: as above; conditions: resistant strain Staphylococcus epidermidis 178; 2-fold agar dilution; methicillin resistant strains 48 hours at 30° C.; read-out: minimum inhibitory concentration (MIC)
Procedure: as §1

[6] = tested on: Staphylococcus aureus 690E; test: as above; conditions: resistant strain Staphylococcus aureus 690E; 2-fold agar dilution; methicillin resistant strains 48 hours at 30° C.; read-out: minimum inhibitory concentration (MIC)
Procedure: as §1

[7] = tested on: Staphylococcus aureus 697E; test: as above; conditions: resistant strain Staphylococcus aureus 697E; 2-fold agar dilution; methicillin resistant strains 48 hours at 30° C.; read-out: minimum inhibitory concentration (MIC)
Procedure: as §1

[8] = tested on: Staphylococcus epidermidis 291; test: as above; conditions: resistant strain Staphylococcus epidermidis 291; 2-fold agar dilution; methicillin resistant strains 48 hours at 30° C.; read-out: minimum inhibitory concentration (MIC)
Procedure: as §1

[9] = tested on: Staphylococcus aureus 241; test: as above; conditions: resistant strain Staphylococcus aureus 241; 2-fold agar dilution; methicillin resistant strains 48 hours at 30° C.; read-out: minimum inhibitory concentration (MIC)
Procedure: as §1

[10] = tested on: Staphylococcus aureus 695E; test: as above; conditions: resistant strain Staphylococcus aureus 695E; 2-fold agar dilution; methicillin resistant strains 48 hours at 30° C.; read-out: minimum inhibitory concentration (MIC)
Procedure: as §1

[11] = tested on: Staphylococcus aureus 303; test: as above; conditions: resistant strain Staphylococcus aureus 303; 2-fold agar dilution; methicillin resistant strains 48 hours at 30° C.; read-out: minimum inhibitory concentration (MIC)
Procedure: as §1

[12] = tested on: Staphylococcus aureus 694E; test: as above; conditions: resistant strain Staphylococcus aureus 694E; 2-fold agar dilution; methicillin resistant strains 48 hours at 30° C.; read-out: minimum inhibitory concentration (MIC)
Procedure: as §1

[13] = tested on: Staphylococcus aureus 8236; test: as above; conditions: resistant strain Staphylococcus aureus 8236; 2-fold agar dilution; methicillin resistant strains 48 hours at 30° C.; read-out: minimum inhibitory concentration (MIC)
Procedure: as §1

[14] = tested on: Staphylococcus aureus 121E; test: as above; conditions: resistant strain Staphylococcus aureus 121E; 2-fold agar dilution; methicillin resistant strains 48 hours at 30° C.; read-out: minimum inhibitory concentration (MIC)
Procedure: as §1

[15] = tested on: Staphylococcus aureus 179; test: as above; conditions: resistant strain Staphylococcus aureus 179; 2-fold agar dilution; methicillin resistant strains 48 hours at 30° C.; read-out: minimum inhibitory concentration (MIC)
Procedure: as §1

[16] = tested on: Staphylococcus aureus 703E; test: as above; conditions: resistant strain Staphylococcus aureus 703E; 2-fold agar dilution; methicillin resistant strains 48 hours at 30° C.; read-out: minimum inhibitory concentration (MIC)
Procedure: as §1

[17] = tested on: Staphylococcus aureus 293; test: as above; conditions: resistant strain Staphylococcus aureus 293; 2-fold agar dilution; methicillin resistant strains 48 hours at 30° C.; read-out: minimum inhibitory concentration (MIC)
Procedure: as §1

[18] = tested on: Staphylococcus aureus 256E; test: as above; conditions: resistant strain Staphylococcus aureus 256E; 2-fold agar dilution; methicillin resistant strains 48 hours at 30° C.; read-out: minimum inhibitory concentration (MIC)
Procedure: as §1

[19] = tested on: Staphylococcus aureus 88E; test: as above; conditions: resistant strain Staphylococcus aureus 88E; 2-fold agar dilution; methicillin resistant strains 48 hours at 30° C.; read-out: minimum inhibitory concentration (MIC)
Procedure: as §1

[20] = tested on: Staphylococcus aureus 285; test: In vitro antibacterial activity (MIC), agar dilution; conditions: 2-fold agar dilution, Muller-Hinton agar, 18 hours at 37° C., read-out: minimum inhibitory concentration (MIC)
Procedure: as §1

Esherichia coli DC0 = test: as above; conditions: 2-fold agar dilution, Muller-Hinton agar, 18 hours at 37° C., read-out: minimum inhibitory concentration (MIC)
Procedure: as §1

[21] = tested on: Enterobacter clocae 1321E; test: as above; conditions: 2-fold agar dilution, Muller-Hinton agar, 18 hours at 37° C., read-out: minimum inhibitory concentration (MIC)
Procedure: as §1

[22] = tested on: Pseudomonas aeruginosa 9027; test: as above; conditions: 2-fold agar dilution, Muller-Hinton agar, 18 hours at 37° C., read-out: minimum inhibitory concentration (MIC)
Procedure: as §1

Enterobacter clocae P99 = test: as above; conditions: 2-fold agar dilution, Muller-Hinton agar, 18 hours at 37° C., read-out: minimum inhibitory concentration (MIC)
Procedure: as §1

Salmonella typhimurium = test: as above; conditions: Salmonella enterica, 2-fold agar dilution, Muller-Hinton agar, 18 hours at 37° C., read-out: minimum inhibitory concentration (MIC)
Procedure: as §1

Esherichia coli 1507E = test: as above; conditions: 2-fold agar dilution, Muller-Hinton agar, 18 hours at 37° C., read-out: minimum inhibitory concentration (MIC)
Procedure: as §1

[23] = tested on: Streptococcus pyogens 308A; test: as above; conditions: 2-fold agar dilution, Muller-Hinton agar, 18 hours at 37° C., read-out: minimum inhibitory concentration (MIC)
Procedure: as §1

[24] = tested on: Staphylococcus aureus 503; test: as above; conditions: 2-fold agar dilution, Muller-Hinton agar, 18 hours at 37° C., read-out: minimum inhibitory concentration (MIC)
Procedure: as §1

[25] = tested on: Staphylococcus aureus SG511; test: as above; conditions: 2-fold agar dilution, Muller-Hinton agar, 18 hours at 37° C., read-out: minimum inhibitory concentration (MIC)
Procedure: as §1

[26] = tested on: Klebsiella aerogenes 1522E; test: as above; conditions: 2-fold agar dilution, Muller-Hinton agar, 18 hours at 37° C., read-out: minimum inhibitory concentration (MIC)
Procedure: as §1

[27] = tested on: Streptococcus faecium MD 8b; test: as above; conditions: Enterococcus faecium, MD8B, 2-fold agar dilution, Muller-Hinton agar, 18 hours at 37° C., read-out: minimum inhibitory concentration (MIC)
Procedure: as §1

Esherichia coli 078 = test: as above; conditions: 2-fold agar dilution, Muller-Hinton agar, 18 hours at 37° C., read-out: minimum inhibitory concentration (MIC)
Procedure: as §1

[28] = tested on: Streptococcus pyogens 77A; test: as above; conditions: 2-fold agar dilution, Muller-Hinton agar, 18 hours at 37° C., read-out: minimum inhibitory concentration (MIC)
Procedure: as §1

[29] = tested on: Pseudomonas aeruginosa 1771; test: as above; conditions: 2-fold agar dilution, Muller-Hinton agar, 18 hours at 37° C., read-out: minimum inhibitory concentration (MIC)
Procedure: as §1

Klebsiella oxytoca 1082E = test: as above; conditions: 2-fold agar dilution, Muller-Hinton agar, 18 hours at 37° C., read-out: minimum inhibitory concentration (MIC)
Procedure: as §1

Esherichia coli TEM = test: as above; conditions: 2-fold agar dilution, Muller-Hinton agar, 18 hours at 37° C., read-out: minimum inhibitory concentration (MIC)
Procedure: as §1

[30] = tested on: Pseudomonas aeruginosa 1592E; test: as above; conditions: 2-fold agar dilution, Muller-Hinton agar, 18 hours at 37° C., read-out: minimum inhibitory concentration (MIC)
Procedure: as §1

[31] = tested on: Pseudomonas aeruginosa 1771M; test: as above; conditions: Pseudomonas aeruginosa, 1771M, 18 h, read-out: minimum inhibitory concentration (MIC)
Procedure: as §1

SMILES	MIC [20] [µg/mL]	MIC (Esherichia coli DC0) [µg/mL]	MIC [21] [µg/mL]	MIC [22] [µg/mL]	MIC (Enterobacter clocae P99) [µg/mL]	MIC (Salmonella typhimurium) [µg/mL]	MIC (Esherichia coli 1507E) [µg/mL]	MIC [23] [µg/mL]	MIC [24] [µg/mL]	MIC [25] [µg/mL]	MIC [26] [µg/mL]	MIC [27] [µg/mL]	MIC (Esherichia coli 078) [µg/mL]	MIC [28] [µg/mL]	MIC [29] [µg/mL]	MIC (Klebsiella oxytoca 1082E) [µg/mL]	MIC (Esherichia coli TEM) [µg/mL]	MIC [30] [µg/mL]	MIC [31] [µg/mL]	other results
CON=C1CN(c2nc3c(cc2F)c(=O)c(C(=O)O)cn3C2CC2)CC12CNC2.CS(=O)(=O)O [Example 1, 1-Cyclopropyl-6-fluoro-7-[8-(methoxyimino)-2,6-diazaspiro[3,4]oct-6-yl]-4-oxo-1,4-dihydro[1,8]naphthyridine-3-carboxylic acid methanesulfonate]	0.025	0.195	0.013	0.781	0.025	0.013	0.025	0.098	0.025	0.007	0.049	0.049	0.013	0.007	0.391	0.004	0.025	0.391	0.391	MIC [1]: 0.049 µg/mL; MIC [2]: 0.049 µg/mL; MIC [3]: 0.049 µg/mL; MIC [4]: 0.025 µg/mL; MIC [5]: 1.56 µg/mL; MIC [6]: 0.025 µg/mL; MIC [7]: 0.013 µg/mL; MIC [8]: 1.56 µg/mL; MIC [9]: 0.781 µg/mL; MIC [10]: 0.049 µg/mL; MIC [11]: 0.781 µg/mL; MIC [12]: 0.049 µg/mL; MIC [13]: 0.781 µg/mL; MIC [14]: 0.049 µg/mL; MIC [15]: 0.781 µg/mL; MIC [16]: 0.049 µg/mL; MIC [17]: 0.781 µg/mL; MIC [18]: 0.025 µg/mL; MIC [19]: 0.049 µg/mL
CON=C1CN(c2c(F)cc3c(=O)c(C(=O)O)cn(C4CC4)c3c2Cl)CC12CNC2 [Example 4, 1-Cyclopropyl-6-fluoro-8-chloro-7-[8-(methoxyimino)-2,6-diazaspiro[3,4]oct-6-yl]-4-oxo-1,4-dihydro-3-quinolinecarboxylic acid]	0.049 (≈ 0.113 µM)	0.391 (≈ 0.899 µM)	0.025 (≈ 0.0575 µM)	0.781 (≈ 1.8 µM)	0.049 (≈ 0.113 µM)	0.025 (≈ 0.0575 µM)	0.049 (≈ 0.113 µM)	0.195 (≈ 0.448 µM)	0.025 (≈ 0.0575 µM)	0.013 (≈ 0.0299 µM)	0.098 (≈ 0.225 µM)	0.098 (≈ 0.225 µM)	0.025 (≈ 0.0575 µM)	0.013 (≈ 0.0299 µM)	0.781 (≈ 1.8 µM)	0.004 (≈ 0.0092 µM)	0.049 (≈ 0.113 µM)	0.781 (≈ 1.8 µM)	0.391 (≈ 0.899 µM)	
CON=C1CN(c2nc3c(cc2F)c(=O)c(C(=O)O)cn3-c2ccc(F)cc2F)CC12CNC2.CS(=O)(=O)O [Example 7, 1-(2,4-Difluorophenyl)-6-fluoro-7-[8-(methoxyimino)-2,6-diazaspiro[3,4]oct-6-yl]-4-oxo-1,4-dihydro-1,8-naphthyridine-3-carboxylic acid methane sulfonate]	0.049	0.781	0.049	1.56	0.098	0.049	0.195	0.195	0.025	0.013	0.195	0.098	0.049	0.013	1.56	0.013	0.098	1.56	0.781	
CCON=C1CN(c2nc3c(cc2F)c(=O)c(C(=O)O)cn3C2CC2)CC12CNC2.CS(=O)(=O)O [Example 8, 1-Cyclopropyl-6-fluoro-7-[8-(ethoxyimino)-2,6-diazaspiro[3,4]oct-6-yl]-4-oxo-1,4-dihydro-1,8-naphthyridine-3-carboxylic acid methanesulfonate]	0.025	0.391	0.025	1.56	0.025	0.013	0.049	0.098	0.013	0.007	0.098	0.098	0.013	0.007	0.781	0.004	0.025	0.781	0.781	
CON=C1CN(c2nc3c(cc2F)c(=O)c(C(=O)O)cn3C2CC2)CC12CN(C)C2 [Example 10, 1-Cyclopropyl-6-fluoro-7-[8-(methoxyimino)-2-methyl-2,6-diazaspiro[3,4]oct-6-yl]-4-oxo-1,4-dihydro-1,8-naphthyridine-3-carboxylic acid]	0.049 (≈ 0.118 µM)	0.391 (≈ 0.941 µM)	0.025 (≈ 0.0602 µM)	0.781 (≈ 1.88 µM)	0.049 (≈ 0.118 µM)	0.049 (≈ 0.118 µM)	0.049 (≈ 0.118 µM)	0.098 (≈ 0.236 µM)	0.025 (≈ 0.0602 µM)	0.013 (≈ 0.0313 µM)	0.098 (≈ 0.236 µM)	0.098 (≈ 0.236 µM)	0.013 (≈ 0.0313 µM)	0.013 (≈ 0.0313 µM)	0.781 (≈ 1.88 µM)	0.007 (≈ 0.0169 µM)	0.049 (≈ 0.118 µM)	0.781 (≈ 1.88 µM)	0.781 (≈ 1.88 µM)	
